In publication PMC12455637, “Functionalizing Nisin with a Sugar Moiety Improves Its Solubility and Results in an Altered Antibacterial Spectrum and Mode of Action” (ACS Synthetic Biology, 2025):
Converted amounts (≈) assume the structure as drawn. Ends that are not written are not given here.

Tests used:
[1] = test system: Enterococcus faecium LMG16003 (VRE); type: cell-based; conditions: broth microdilution, inoculum ~5 × 10^5 CFU/mL, overnight 37 °C, HPLC-purified peptides
Description: (§1) The minimal inhibitory concentration (MIC) values were assessed through broth microdilution following standard guidelines. The inoculum was adjusted to around 5 × 10^5 CFU/mL. MIC was characterized as the lowest concentration of the antimicrobial substance at which no visible growth was observed following overnight incubation at 37 °C.

[2] = test system: Staphylococcus aureus LMG15975 (MRSA); type: cell-based; conditions: broth microdilution, inoculum ~5 × 10^5 CFU/mL, overnight 37 °C, HPLC-purified peptides
Description: as §1

[3] = test system: E. faecium; type: cell-based, Enterococcus faecium; conditions: agar well diffusion, 30 μL of 1 mg/mL
Description: 2 Production of single-Met containing nisin and nisin variants labeled with Met, Hpg or Hpg–Glc and their antibacterial activity against E. faecium strain. (a) Quantification of fully modified nisin variants labeled with Met or Hpg using HPLC as per Schmitt et al. (b) Evaluation of the antimicrobial efficacy of nisin and its variants against E. faecium through agar well diffusion assay. Each trial was repeated 3 times. The relative activity was determined by measuring inhibition zone diameters in millimeters, calculated as the area of the zone (πr ^2) minus the area of the well (πr ^2) in millimeters.
(§2) An overnight culture was added at a concentration of 0.1% (v/v) to molten GM17 agar (for E. faecium and E. faecalis) or LB agar (for S. aureus and B. cereus) at 45 °C, and then 30 mL of this mixture was poured onto a plate. After the agar solidified, wells of 8 mm were created by punching in the agar and filled with 30 μL of a 1 mg/mL lantibiotic solution. If needed, lantibiotics were activated by adding 3 μL of 1 mg/mL NisP directly to the well. The quantity of nisin was determined using HPLC as previously outlined. The agar plate was then incubated at 37 °C overnight, and the zones of inhibition were measured. The presented data results from three independent experiments. Zone diameters were measured in millimeters and recorded as the area of the zone (πr ^2) minus the area of the well (πr ^2) in millimeters.

[4] = test system: S. aureus; assay: Agar well diffusion assay; type: cell-based, Staphylococcus aureus; conditions: HPLC-purified peptides
Description: as §2

[5] = test system: B. cereus; assay: Agar well diffusion assay; type: cell-based, Bacillus cereus; conditions: HPLC-purified peptides
Description: as §2

[6] = test system: Enterococcus faecalis; assay: Agar well diffusion assay; type: cell-based; conditions: HPLC-purified peptides
Description: as §2

[7] = Solubility at neutral pH; type: physicochemical
Description: Highest solubility at pH 7 was obtained for nisin Z mutant M31K (7–8 mg/mL). The covalent modification of a therapeutic peptide or protein with sugar units is an established strategy to enhance drug solubility and bioavailability. The N-terminal segment of nisin contains a relatively high proportion of hydrophobic residues, while the C-terminal portion is more hydrophilic, featuring positively charged lysine and histidine side chains (Figure e). Attaching a hydrophilic sugar moiety to the C-terminal region of nisin therefore may not substantially alter its amphiphilic nature. To assess the solubility of nisin and its new variants at neutral pH, wild-type nisin or nisin(M21V)–Gal were added to a 50 mM PBS buffer solution (pH 7.2) at room temperature until precipitation occurred (Figure S7a). After equilibration, the concentration of dissolved nisin in the saturated solution was determined using high-performance liquid chromatography (HPLC).
Wild-type nisin (product code: 0305, Handary, Belgium) or nisin(M21V)–Gal was added to a 50 mM PBS buffer solution until precipitation occurred. Equilibrium was established by continuous shaking for 30 min, followed by centrifugation for 3 min at 15,000g. The concentration of the saturated nisin solution was determined using HPLC. […]

[8] = test system: lipid II; assay: Spot-on-lawn assay of peptide-lipid II complex formation; type: cell-based, Enterococcus faecium; conditions: lipid II 300 μM, 2 μL spotted at edge of inhibition zone, E. faecium lawn, overnight 37 °C
Description: To assess the interaction between the peptide and lipid II, an overnight culture of E. faecium was added to 0.8% GM17 (w/v) at 45 °C with a final concentration of 0.1% (v/v), and the mixture was then poured into 10 mL plates. The binding of the peptide to lipid II was further examined by spotting purified lipid II (300 μM, 2 μL) at the periphery of the antibiotic inhibition zone. In brief, antimicrobials were applied to the agar plate. Once the antimicrobial solution drops had dried, lipid II was spotted at the edge of the inhibition zone. After the drops had dried, the plates were incubated overnight at 37 °C.

[9] = test system: E. faecium; assay: Time-kill assay; type: cell-based, Enterococcus faecium
Description: The antimicrobial effectiveness of nisin, nisin(1–22), and nisin(M21V)–Gal was assessed using a method previously described by Guo et al. , In summary, an overnight culture of E. faecium was diluted 50 times in GM17 medium and cultured at 37 °C. The bacteria were grown until reaching an optical density at 600 nm (OD600) of 0.5, and then the cell concentration was adjusted to 5 × 10^5 colony-forming units per milliliter (CFU/mL). Following this, the bacteria were exposed to a 5-fold MIC of each peptide. An untreated cell suspension was used as a control. At specific time intervals, 50 μL samples were taken, and both undiluted and 10-fold serially diluted suspensions were plated on GM17 agar. The plates were then incubated overnight at 37 °C, and the resulting colonies were counted and expressed as CFU/mL. Each experiment was conducted in triplicate.

[10] = test system: E. faecium; assay: Potassium ion efflux assay (PBFI probe); type: cell-based, Enterococcus faecium; conditions: various peptide concentrations, up to 32 times MIC; 10 mM HEPES pH 7.2, 0.5% glucose, 10 μM PBFI
Description: To conduct the K^+ release assay, the K^+-specific fluorescent probe PBFI was utilized. E. faecium was cultured in GM17 medium until it reached an OD600 of 0.6, at which point the cells were harvested (5000g, 5 min) and washed twice with 10 mM HEPES (pH 7.2) containing 0.5% glucose. The cells were then suspended in the same buffer supplemented with 10 μM PBFI. Data analysis was carried out using a Varioskan LUX Multimode Microplate Reader (Thermo Fisher Scientific), with cell excitation at 346 nm and fluorescence emission measurement at 505 nm to establish a baseline signal before the introduction of varying concentrations of antibiotics. Nisin was utilized as the positive control in this study.

[11] = test system: E. faecium cells; assay: Membrane potential, DiSC3(5) probe; type: cell-based, Enterococcus faecium; conditions: different concentrations, 2 μM DiSC3(5), monitored 25 min, three replicates
Description: To assess the membrane potential, the membrane potential-sensitive fluorescent dye DiSC3(5) was employed. E. faecium was grown to an OD600 of 0.8, then centrifuged at 5000g for 5 min and washed twice in 10 mM HEPES with 10 mM glucose (pH 7.2). The cell density was adjusted to an OD600 of 0.2 and loaded with 2 μM DiSC3(5) dye, followed by a 20 min incubation in darkness to stabilize the probe fluorescence. Subsequently, the cell suspension was transferred to a 96-well microplate and incubated for 5 min with 100 mM KCl. Antibiotics were then introduced at a varied concentration, and the fluorescence was monitored for 25 min. The excitation and emission wavelengths on the fluorescence spectrometer were set to 622 and 670 nm, respectively. Three replicates were conducted, and a representative example is presented.

[12] = test system: Staphylococcus epidermidis; conditions: ref citation number not printed (Twomey et al. by title); cited from earlier work
From the text: Recently, we introduced the Met analog Aha at position 17 and used click chemistry to ...

| Compound | MIC [1] [µg/mL] | MIC [2] [µg/mL] | antibacterial activity in words [3] | activity compared to wild-type nisin or Hpg-labeled nisin(M21V) [4] | activity compared to wild-type nisin or Hpg-labeled nisin(M21V) [5] | activity compared to wild-type nisin or Hpg-labeled nisin(M21V) [6] | solubility thermodynamic at 30 min ([7]; aqueous buffer, thermodynamic from solid, thermodynamic, solid added until precipitation, 50 mM PBS pH 7.2, room temperature, shaking 30 min, centrifugation 3 min 15,000g, HPLC at 226 nm against nisin standard curve, repeated 3 times) [µg/mL] | solubility, times higher compared to wild-type nisin ([7]; neutral pH, 50 mM PBS pH 7.2, room temperature) [times] | effect of externally added purified lipid II on antimicrobial activity / lipid II binding [8] | bacteriostatic or bactericidal nature ([9]; 5-fold MIC against E. faecium) | reduction in bacterial population ([9]; 5-fold MIC, after 3 h of incubation, start 5 × 10^5 CFU/mL, triplicate) | potassium ion release (PBFI fluorescence) [10] | membrane depolarization (DiSC3(5) fluorescence) [11] | influence of M17 mutation on antimicrobial activity [12] |
| --- | --- | --- | --- | --- | --- | --- | --- | --- | --- | --- | --- | --- | --- | --- |
| C=C(NC(=O)[C@@H](NC(=O)[C@H](Cc1c[nH]cn1)NC(=O)[C@@H](NC(=O)[C@H](CO)NC(=O)[C@@H]1CS[C@@H](C)[C@H]2NC(=O)[C@H](C)NC(=O)[C@H](NC(=O)[C@H](CCCCN)NC(=O)[C@@H](NC(=O)[C@H](CC(N)=O)NC(=O)[C@@H]3CS[C@@H](C)[C@@H](NC(=O)[C@H](CCCCN)NC(=O)[C@@H]4CS[C@@H](C)[C@@H](NC(=O)[C@@H]5CSC[C@@H](NC(=O)/C(=C/C)NC(=O)[C@@H](N)[C@@H](C)CC)C(=O)N[C@@H]([C@@H](C)CC)C(=O)NC(=C)C(=O)N[C@@H](CC(C)C)C(=O)N5)C(=O)N5CCC[C@H]5C(=O)NCC(=O)N4)C(=O)NCC(=O)N[C@@H](C)C(=O)N[C@@H](CC(C)C)C(=O)N[C@@H](CCc4cn(C[C@H]5OC(O)[C@H](O)[C@@H](O)[C@H]5O)nn4)C(=O)NCC(=O)N3)C(C)C)[C@H](C)SC[C@H](NC2=O)C(=O)N[C@@H](Cc2c[nH]cn2)C(=O)N1)[C@@H](C)CC)C(C)C)C(=O)N[C@@H](CCCCN)C(=O)O (some centres unmarked) [nisin(M21V)–Gal] | 3.8 (≈ 1.08 µM) | 15.19 (≈ 4.33 µM) | retained high potency | reduced activity | reduced activity | significantly lower activity | 8600 (≈ 2450 µM) | 3.9 | maintained its capacity to bind to lipid II | bactericidal activity | thousand-fold | did not demonstrate this effect | lost the ability to induce membrane depolarization | – |
| M17Q: literature nisin mutant with M17Q mutation (ITSISLCTPGCKTGALQGCNMKTATCHCSIHVSK; cysteine pairing not given here; also: lantibiotic nisin-A; UniProt P13068 24-57, looked up, variant M17Q) | – | – | – | – | – | – | – | – | – | – | – | – | – | enhanced effectiveness |
